Measured values: US11723907B2, “Anti-aging compounds” (THE CLEVELAND CLINIC FOUNDATION, priority 2017, dated 2023)

Assays:
[1] = cited from earlier work
[2] = tested on: cytochrome c; assay: Enzymatic NAD(P)H oxidation / cytochrome c reduction catalyzed by N2N1; type: biochemical; settings: inhibitor 2 μM
Protocol: FIGS. 5A-5C provide graphs and schemes relating to the N2N1 mechanism of action. […] No specific substrate was added into reaction mix, therefore, it was concluded that reaction was driven by slow reduction of molecular oxygen dissolved into reaction buffer. The hypothetical reaction equation is shown below reaction plots. (B) The proposed molecular mechanism of possible substrate reduction catalyzed by N2N1. (C) Addition of peroxide or cytochrome c into reaction allowed us to identify cytochrome c as the most preferable substrate for the N2N1 driven enzymatic reaction. […] It was interesting to notice that addition of cytochrome c to non-enzymatic reaction reduced the reaction rate. […] The hypothetical reaction equation is show below the reaction plots.
FIGS. 6A-6B provide graphs showing the enzymatic reduction of cytochrome C catalyzed by N2N1 can utilize both NADH and NADPH. (A) The enzymatic electrons transfer from NADH to cytochrome c driven by N2N1 was monitored by decrease in absorption at 340 nm (NADH) and increase in absorption at 550 nm (cytochrome c). The absorbance spectrum was screened at the end of the reaction (˜1 hour). The hypothetical reaction equation is shown below the reaction plots. (B) The enzymatic electrons transfer from NADPH to cytochrome c driven by N2N1 was monitored by decrease in absorption at 340 nm (NADPH) and increase in absorption at 550 nm (cytochrome c). The hypothetical reaction equation is shown below the reaction plots.
To evaluate possible participation of mitochondrial NADH oxidoreductases, in particular Complex I and III, the […] was run in the presence of rotenone or antimycin A (2 μM). The acquired data allowed us to specify the most probable candidate that carry out the transfer electrons from NAD(P)H to cytochrome C driven by N2N1. The NQO1 protein would be the most likely candidate, while proteins from CYB5 family still cannot be ruled out.
Bonkowski et al., Nature reviews. Molecular cell biology 17, 679-690 (2016); Orr et al., Antioxidants & redox signaling 19, 788-803 (2013). It quite possible, that NAD(P)H oxidation catalyzed by N2N1 is performed by NADH:cytochrome b5 reductases (CYB5 . . . ) or NAD(P)H:quinone oxidoreductase (NQO1) reductase (FIG. 3C). The inventors found by RNA-seq analysis that fourteen genes from CYB5 family were expressed in normal fibroblast. NQO1 was also detected at the high level of expression. These reductases connect aerobic metabolism with aging by directed electron flow from NAD(P)H to oxygen, cytochrome C, and peroxide. Jimenez-Hidalgo et al., Aging cell 8, 140-151 (2009). […]

Molecule	water solubility [1]	suppression of enzymatic reduction of cytochrome c catalyzed by N2N1 [2]
CO[C@H]1C[C@@H]2CC[C@@H](C)[C@@](O)(O2)C(=O)C(=O)N2CCCC[C@H]2C(=O)O[C@H]([C@H](C)C[C@@H]2CC[C@@H](O)[C@H](OC)C2)CC(=O)[C@H](C)/C=C(\C)[C@@H](O)[C@@H](OC)C(=O)[C@H](C)C[C@H](C)/C=C/C=C/C=C/1C [Rapamycin]	poor	
C=C(C)[C@H]1Cc2c(ccc3c2O[C@@H]2COc4cc(OC)c(OC)cc4[C@@H]2C3=O)O1 [rotenone, reference compound]		did not suppress
antimycin A [reference compound]		did not suppress
